Laboratory results taken from US10632127B2, “Targeted notch pathway inhibitors” (Hoffmann-La Roche Inc., priority 2015, dated 2020).
Where two headings read alike, the source gives them in different places.

How the values were obtained:
[1] = Distribution in plasma, liver and kidney in the aristolochic acid mouse model (repeated i.p.); assay type: in vivo; settings: for concentration at 13 h: male, C57BL/6, mouse, ip
Method: (§1) For PK evaluation, the compounds were administered i.p to male C57BL/6 mice in suspension (gelatine/saline 7.5%/0.62% in water) using an administration volume of 4 mL/kg. Blood samples were collected in tubes containing EDTA, plasma was separated by centrifugation and stored at −80° C. Liver and kidney samples (˜100 mg aliquots) were homogenized in three volumes of water using Precellys tissue homogenization tubes (precellys.com). 25 μL of each tissue homogenate was further diluted with 25 μL blank plasma to produce the final tissue homogenate for extraction. All samples were analyzed using protein precipitation followed by LC-MS/MS analysis. Briefly, 50 μL plasma or final tissue homogenate were mixed with 50 μL 0.5M HClO4/acetonitrile 9/1 (containing 200 ng/mL internal standard bosentan). Samples were stirred and 300 μL water was added followed by centrifugation at 5600 rpm (4° C., 10 min). 10 μL supernatant was analyzed by LC/MS analysis. Calibration standards in plasma were prepared the same way. The LC column and conditions used were: Phenomenex, Polar RP, 4 μm, 50×2.1 mm at 0.4 mL/min flow rate with a 3 min gradient from 95% solvent A to 95% solvent B (Solvent A: Water/ACN/HCOOH, 90:10:0.1+10 mM NH4 formate; Solvent B: Water/ACN/HCOOH, 10:90:0.1+10 mM NH4 formate). Mass spectrometric conditions were: Thermo TSQ Vantage with positive heated electrospray ionization in MS/MS mode. Compounds mass transitions monitored were m/z 320.7 to 119.9. PK parameters for all studies were calculated using Phoenix WinNonlin Software.
All experiments with animals were conducted in accordance with federal and local regulation at the respective study location. Kidney injury was induced by intraperitoneal (i.p). injection of aristolochic acid (AA, Sigma-Aldrich, 1×5 mg/kg) in 10 weeks old BALB/c male mice. The γ-secretase inhibitors prodrugs were diluted in NaCl 0.9% and administered i.p., starting one day before the injection of AA (day −1) and then twice daily until day 6 evening (n=5 mice/experimental group). […] The kidneys were cut in four fragments. One fragment was immediately frozen in liquid nitrogen, one fragment was included in OCT (Tissue-Tek, VWR International, Switzerland) and frozen, one fragment was frozen at −80° C. and one fragment was fixed in 4% paraformaldehyde and included in paraffin.
To investigate potential nephroprotective effects of Notch blockade using γ-secretase inhibition and to evaluate the effects of our enzyme-targeted prodrug strategy, we used the in vivo AA mouse model of acute renal tubular damage. […]
Plasma and tissue concentrations of administered compound (Table 6A-C) and formed free γ-secretase inhibitor (8) (Table 6A) or amine-SecrI (11a) (Table 6B-C) were determined following 8-day repeated i.p. administration at 10 mg/kg b.i.d. (Table 6A) or 30 mg/kg b.i.d. […] Numbers in parentheses represent relative amounts with the exposure of 11a in kidney arbitrarily set at each time point to 100%. […] BQL=below quantifiable limit.

[2] = Pharmacokinetic assessment in C57BL/6 healthy wild-type mice (i.p.); assay type: in vivo, mouse; settings: C57BL/6 mice; for concentration at 0.5 h / concentration at 4 h / concentration at 7 h: male, mouse, ip
Method: as §1
We next determined the stability, tissue distribution and cleavage rate in plasma, liver and kidney of the designed prodrugs in non-diseased mice. In the in vivo screen, the kinetics and distribution of γ-secretase inhibitor prodrugs Ac-γ-Glu-SecrI (13a), Ac-α-Glu-SecrI (15a) and H-α-Glu-SecrI (15b) were compared with the active γ-secretase inhibitor amine-SecrI (11a). After i.p administration (10 mg/kg) in C57BL/6 mice, the disappearance of the prodrugs and the formation of the active amine-SecrI (11a) were compared in plasma, liver and kidney (Table 5). First, we determined the pharmacokinetics (PK) behavior of amine-SecrI (11a) following i.p. administration (Table 5A). […] Liver and kidney exposure were much higher, with approximately 4.5-fold higher exposure in liver compared to kidney. […] The selectivity towards kidney appeared to decrease over time, probably due to fast clearance and re-equilibration of the amine-SecrI (11a). However, the high selectivity at earlier time-points assured that the total exposure over time was much higher in the kidney compared to the liver.

[3] = AA-exposed mice, 11a 10 mg/kg b.i.d. i.p. repeated, 13 h
[4] = kidney, 10 mg/kg i.p., 0.5 h, read-out: Kidney concentration of administered compound
[5] = kidney, 10 mg/kg i.p., 4 h, read-out: Kidney concentration of administered compound
[6] = kidney, 10 mg/kg i.p., 7 h, read-out: Kidney concentration of administered compound
[7] = liver, 10 mg/kg i.p., 0.5 h, read-out: Liver concentration of administered compound
[8] = liver, 10 mg/kg i.p., 4 h, read-out: Liver concentration of administered compound
[9] = liver, 10 mg/kg i.p., 7 h, read-out: Liver concentration of administered compound
[10] = plasma, 10 mg/kg i.p., 0.5 h, read-out: Plasma concentration of administered compound
[11] = plasma, 10 mg/kg i.p., 7 h, read-out: Plasma concentration of administered compound
[12] = AA-exposed mice, 13a 30 mg/kg b.i.d. i.p. repeated, 13 h
[13] = mice, 13a 30 mg/kg b.i.d. i.p. repeated, without AA (Table 6B), 13 h

SMILES: C[C@H]1Oc2ccc(F)cc2N(CCO)C(=O)[C@H]1NC(=O)[C@@](C)(O)C(=O)NCC(F)(F)C(F)(F)F [Compound 8, N-[(6R,7S)-2-Fluoro-9-(2-hydroxy-ethyl)-6-methyl-8-oxo-6,7,8,9-tetrahydro-5-oxa-9-aza-benzocyclohepten-7-yl]-2-(S)-hydroxy-2-methyl-N′-(2,2,3,3,3-pentafluoro-propyl)-malonamide]
- Plasma concentration of formed 8 [1, 3]: BQL

SMILES: C[C@H]1Oc2ccc(F)cc2N(CCOC(=O)NCCN)C(=O)[C@H]1NC(=O)[C@@](C)(O)C(=O)NCC(F)(F)C(F)(F)F.Cl [Compound 11a, 2-((2R,3S)-7-Fluoro-3-((S)-2-hydroxy-2-methyl-3-oxo-3-(2,2,3,3,3-pentafluoropropylamino)propanamido)-2-methyl-4-oxo-3,4-dihydrobenzo[b][1,4]oxazepin-5(2H)-yl)ethyl 2-aminoethylcarbamate hydrochloride]
- hydrolysis of the linker in 11a to the free antagonist 8 ([2]; 10 mg/kg i.p.): never observed significant amounts
- plasma exposure, in words ([2]; 10 mg/kg i.p.): very low plasma exposure
- exposure in liver compared to kidney ([2]; 11a 10 mg/kg i.p.): approximately 4.5 fold
- 11a in kidney, relative amount (arbitrarily set to 100%) ([2]; 11a 10 mg/kg i.p., 0.5 h): (100) %
- 11a in liver, relative amount (11a in kidney = 100%) ([2]; 11a 10 mg/kg i.p., 0.5 h): (450) %
- 11a in kidney, relative amount (arbitrarily set to 100%) ([2]; 11a 10 mg/kg i.p., 4 h): (100) %
- 11a in liver, relative amount (11a in kidney = 100%) ([2]; 11a 10 mg/kg i.p., 4 h): (250) %
- 11a in kidney, relative amount (arbitrarily set to 100%) ([2]; 11a 10 mg/kg i.p., 7 h): (100) %
- 11a in liver, relative amount (11a in kidney = 100%) ([2]; 11a 10 mg/kg i.p., 7 h): (290) %
- formed 11a in plasma at all time-points ([2]; after 13a 10 mg/kg i.p.): below the limit of quantitation
- Plasma concentration of formed 11a ([2]; after 13a 10 mg/kg i.p., 0.5 h): BQL
- Plasma concentration of formed 11a ([2]; after 13a 10 mg/kg i.p., 4 h): BQL
- Plasma concentration of formed 11a ([2]; after 13a 10 mg/kg i.p., 7 h): BQL
- Plasma concentration of formed 11a ([2]; after 15b 10 mg/kg i.p., 7 h): BQL
- concentration at 0.5 h [2, 4]: 15500 ng/g
- concentration at 4 h [2, 5]: 1200 ng/g
- concentration at 7 h [2, 6]: 420 ng/g
- concentration at 0.5 h [2, 7]: 70000 ng/g
- concentration at 4 h [2, 8]: 3000 ng/g
- concentration at 7 h [2, 9]: 1200 ng/g
- concentration at 0.5 h [2, 10]: 97.8 ng/mL
- concentration at 4 h ([2]; plasma, 10 mg/kg i.p., 4 h, read-out: Plasma concentration of administered compound): 1.32 ng/mL
- concentration at 7 h [2, 11]: 2.08 ng/mL
- exposure of amine-SecrI (11a) in the Ac-γ-Glu-SecrI (13a) group, in words ([1]; 13a 30 mg/kg b.i.d., 12 h post administration, compared with 11a group): comparatively lower exposure
- exposure of kidney and liver with amine-SecrI (11a), in words ([1]; AA model, 11a 10 mg/kg b.i.d., 12 h post administration): high exposure of kidney and liver
- 11a in kidney, relative amount (arbitrarily set to 100%) [1, 3]: (100) %
- 11a in liver, relative amount (11a in kidney = 100%) [1, 3]: 68%
- Plasma concentration of formed 11a [1, 12]: BQL
- concentration at 13 h ([1]; kidney, 10 mg/kg, AA-exposed mice, 11a 10 mg/kg b.i.d. i.p. repeated, 13 h, read-out: Kidney concentration of 11a): 1830 ng/g
- concentration at 13 h ([1]; liver, 10 mg/kg, AA-exposed mice, 11a 10 mg/kg b.i.d. i.p. repeated, 13 h, read-out: Liver concentration of 11a): 1250 ng/g
- concentration at 13 h ([1]; plasma, 10 mg/kg, AA-exposed mice, 11a 10 mg/kg b.i.d. i.p. repeated, 13 h, read-out: Plasma concentration of 11a): 7.2 ng/mL
- Liver concentration of formed 11a [1, 13]: BQL
- Plasma concentration of formed 11a [1, 13]: BQL

SMILES: CC(=O)N[C@@H](CCC(=O)NCCNC(=O)OCCN1C(=O)[C@@H](NC(=O)[C@@](C)(O)C(=O)NCC(F)(F)C(F)(F)F)[C@@H](C)Oc2ccc(F)cc21)C(=O)O [Compound 13a, (S)-2-acetamido-5-(2-((2-((2R,3S)-7-fluoro-3-((S)-2-hydroxy-2-methyl-3-oxo-3-(2,2,3,3,3-pentafluoropropylamino)propanamido)-2-methyl-4-oxo-3,4-dihydrobenzo[b][1,4]oxazepin-5(2H)-yl)ethoxy)carbonylamino)ethylamino)-5-oxopentanoic acid]
- conversion to amine-SecrI (11a), in words ([2]; 10 mg/kg i.p.): high conversion
- plasma exposure, in words ([2]; 10 mg/kg i.p.): low plasma exposure
- Plasma concentration of administered compound ([2]; 10 mg/kg i.p., 4 h): BQL
- Kidney concentration of administered compound ([2]; 10 mg/kg i.p., 7 h): BQL
- Plasma concentration of administered compound ([2]; 10 mg/kg i.p., 7 h): BQL
- concentration at 0.5 h [2, 4]: 1030 ng/g
- concentration at 4 h [2, 5]: 16.6 ng/g
- concentration at 0.5 h [2, 7]: 3570 ng/g
- concentration at 4 h [2, 8]: 625 ng/g
- concentration at 7 h [2, 9]: 22.3 ng/g
- concentration at 0.5 h [2, 10]: 4.88 ng/mL
- Plasma concentration of 13a [1, 12]: BQL
- concentration at 13 h ([1]; kidney, 30 mg/kg, AA-exposed mice, 13a 30 mg/kg b.i.d. i.p. repeated, 13 h, read-out: Kidney concentration of 13a): 23 ng/g
- concentration at 13 h ([1]; kidney, 30 mg/kg, mice, 13a 30 mg/kg b.i.d. i.p. repeated, without AA (Table 6B), 13 h, read-out: Kidney concentration of 13a): 11 ng/g
- concentration at 13 h ([1]; liver, 30 mg/kg, AA-exposed mice, 13a 30 mg/kg b.i.d. i.p. repeated, 13 h, read-out: Liver concentration of 13a): 155 ng/g
- concentration at 13 h ([1]; liver, 30 mg/kg, mice, 13a 30 mg/kg b.i.d. i.p. repeated, without AA (Table 6B), 13 h, read-out: Liver concentration of 13a): 19 ng/g
- concentration at 13 h ([1]; plasma, 30 mg/kg, mice, 13a 30 mg/kg b.i.d. i.p. repeated, without AA (Table 6B), 13 h, read-out: Plasma concentration of 13a): 6 ng/mL

SMILES: CC(=O)N[C@@H](CCC(=O)O)C(=O)NCCNC(=O)OCCN1C(=O)[C@@H](NC(=O)[C@@](C)(O)C(=O)NCC(F)(F)C(F)(F)F)[C@@H](C)Oc2ccc(F)cc21 [Compound 15a, (S)-4-acetamido-5-(2-((2-((2R,3S)-7-fluoro-3-((S)-2-hydroxy-2-methyl-3-oxo-3-(2,2,3,3,3-pentafluoropropylamino)propanamido)-2-methyl-4-oxo-3,4-dihydrobenzo[b][1,4]oxazepin-5(2H)-yl)ethoxy)carbonylamino)ethylamino)-5-oxopentanoic acid]
- conversion to amine-SecrI (11a), in words ([2]; 10 mg/kg i.p.): much lower extent
- Plasma concentration of administered compound ([2]; 10 mg/kg i.p., 4 h): BQL
- concentration at 0.5 h [2, 4]: 7540 ng/g
- concentration at 4 h [2, 5]: 81 ng/g
- concentration at 7 h [2, 6]: 33.8 ng/g
- concentration at 0.5 h [2, 7]: 7220 ng/g
- concentration at 4 h [2, 8]: 2850 ng/g
- concentration at 7 h [2, 9]: 737 ng/g
- concentration at 0.5 h [2, 10]: 573 ng/mL
- concentration at 7 h [2, 11]: 6.29 ng/mL
